How the values were obtained:
m3 receptor = m3 receptor density in CHO-β2/m3 co-transfected cell line; format: cell-based; conditions: day 5
Excerpt: (§1) The effects of epismilagenin cathylate, sarsasapogenin cathylate, episarsasapogenin cathylate, episarsasapogenin succinate, epismilagenin acetate and sarsasapogenin on the expression of muscarinic acetylcholine receptor (m) in CHO cells or β2 and m3 receptors in CHO cells transfected with either a vector for the m receptor or co-transfected with the vector for β2 and m3 receptors were investigated.
(§2) The results are illustrated in Table 1 below and in FIG. 1 of the drawings. Over the culturing period of CHO cells transfected with a vector for the m receptor, treatment with epismilagenin cathylate, sarsasapogenin cathylate, episarsasapogenin cathylate, episarsasapogenin succinate and sarsasapogenin each prevents the decrease in m receptor number.

β2 adrenoceptor = β2 adrenoceptor density in CHO-β2/m3 co-transfected cell line; format: cell-based; conditions: day 5
Excerpt: as §1, §2

CC(=O)OC1CCC2(C)C(CCC3C2CCC2(C)C3CC3OC4(CCC(C)CO4)C(C)C32)C1 (centres unmarked) [epismilagenin acetate]
density of m3 receptors (m3 receptor): did not significantly alter
decrease in β2 adrenoceptors (density) (β2 adrenoceptor): significantly prevented the decrease
